Data from patent US5334761A, “Cationic lipids” (Life Technologies, Inc., priority 1992, dated 1994).
Where a name gives a salt, the structure may show the parent alone.

System: Jurkat cells
Experiment: CAT transient transfection
Format: cell-based, human
Protocol: A one-to-one mixture (by weight) of the desired lipid and dioleylphosphatidyl ethanolamine was prepared in CHCl3. The CHCl3 was removed on the rotary evaporator to obtain a thin film of lipid mixture. The mixture was hydrated with enough water to obtain approximately 1.25 mg of lipid per ml of solution. The solution was passed through a microfluidizer twice and diluted to 1 mg/ml. The liposome formulation was then filtered through a 0.2 μ filter. Compound 8 was also formulated without DOPE either by sonication at 1 mg/ml in water or by dissolving a dried lipid film with ethanol and then adding water to give a final concentration of 2.5 mg/ml. Ethanol was 10% of that volume. In some instances, this was further diluted with water to 1 mg/ml, 4% ethanol.
Baby hamster kidney (BHK-21) , COS-7, HeLa-S3 cells, and normal human fibroblasts isolated from newborn foreskin dermis were grown in Dulbecco's-modified Eagle's medium (DMEM) containing 10% fetal bovine serum (FBS), 2 mM L-glutamine (gln), 0.1 mM MEM nonessential amino acids (NEAA), 100 U/ml penicillin, and 100 μg/ml streptomycin. NIH-3T3 cells were grown in DMEM containing 10% calf serum (CS), 2 mMgln, 0.1 mM NEAA 100 U/ml penicillin, and 100 μg/ml streptomycin. PC12 cells were grown in DMEMcontaining 10% horse serum, 5% FBS, 2 mM gln, 0 1 mMNEAA, 100 U/ml penicillin and 100 μ/ml streptomycin. Jurkat cells (human lymphoid cell line) were grown in RPMI-1640 supplemented with 10% FBS, 2mML-glutamine, 100 U/ml penicillin, and 100 μg/ml streptomycin. Human keratinocytes were isolated from newborn foreskin epidermis and cultured in Keratinocyte Growth Medium (Clonetics, San Diego, Ca.). All cell lines were maintained in a humidified incubator with a 5% CO2 atmosphere at 37° C.
pSV2CAT (5.0 Kb) was described previously (Gorman, C. M. et al. (1982) Mol. Cell. Biol. 2:1044). pCMVCAT (5.0 Kb) was also described previously (Foecking M. K. and Hofstetter, H. (1986) Gene 45:101). Plasmid DNA was purified by isopycnic centrifugation in CsCl/EtBr gradients after recovery by alkaline lysis (Maniatis, T. et al. (1982) in Molecular Cloning: A Laboratory Manual, Cold Spring Harbor Laboratory, Cold Spring Harbor, N.Y., pp. 90-91).
For transient nuclear expression of pSV2CAT or pCMVCAT in Jurkat cells, cells were washed with Opti-MEM I or serum-free RPMI 1640 containing 2 mM gln and plated in six-well plates at a density of 3×10^6 cells per well in 0.8 ml Opti-MEM I or RPMI 1640. For each transfection, 5 μg pSV2CAT DNA or 2 μg pCMVCAT DNA was diluted in 100 μl Opti-MEM I. Lipids were diluted separately in another 100 μl aliquot of Opti-MEMI. The two solutions were then mixed in a polystyrene tube and incubated for 10-15 min at room temperature. The DNA-liposome complex was added to the cell suspensions and incubated 6 hours at 37° C., after which 4 ml growth medium were added per well (RPMI-1640; 10% FBS). Phorbol myristate acetate (Sigma Chemical Co., St. Louis, Mo.) and phytohemagglutinin (Sigma) were also added to a final concentration of 50 ng/ml and 1 μg/ml, respectively, to activate the cells. Cells were harvested at approximately 48 hours post-transfection by centrifugation. Cell lysates were prepared by resuspending cell pellets at 0° C. in 0.1 M Tris-HC1 pH 8.0 containing 0.1% Triton X-100 and freeze-thawing once. Cell lysates were cleared by centrifugation and assayed for CAT activity.
Cell lysates were assayed for CAT activity as described by Neumann et al. (1987) BioTechniques 5:444 using [^14 C]-butyryl coenzyme A (New England Nuclear, Boston, Mass.). The enzyme reactions were incubated for 2 hrs at 37° C., overlayed with 3.0 ml Econofluor (New England Nuclear) and then incubated for an additional 2 hrs to allow diffusion of the acetylated chloramphenicol into the scintillation fluid. CAT activity was determined by measuring radioactivity in a liquid scintillation counter. […]

**Q.** Which “CAT ACTIVITY” value (15 μg lipid, 2 μg pCMVCAT, 6 h RPMI1640) does the source give for CCCCCCCC/C=C\CCCCCCCCOCC(C[N+](C)(C)CCNC(=O)C(CCCNCCCN)NCCCN)OCCCCCCCC/C=C\CCCCCCCC (centres unmarked) [Compound 8, 1-Propanaminium, N-[2-[[2,5-bis[(3-amino]-1-oxopentyl]amino]ethyl]-n,n-dimethyl-2,3,-bis(9-octadecenyloxy)-, tetra(trifluoroacetate) salt] here?
**A.** 44,996 CPM/150 ul

**Q.** And the “DNA transfection (in words)” value (Jurkat)?
**A.** highly effective
